Test system: IL-1β cytokine output from THP-1s
Assay: THP-1 AlphaLISA IL-1β cytokine assay
Assay type: cell-based, human
Conditions: Homo sapiens, THP-1, PMA-differentiated THP-1 cells, LPS 24 hr then Nigericin 1 hour; read-out: IL-1β (IC50)
Outline: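 PMA-differentiated (72 h) THP-1 cells pretreated 30 min with compound, LPS-stimulated 24 h, then nigericin 1 h at 37 °C. Supernatant IL-1β and IL-6 by AlphaLISA; % inhibition normalised to ±LPS controls, IC50 from concentration-response curves.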
Molecule `C=C(CC(=O)OC(C)(C)CCCCC)C(=O)OCC(=O)O` [Example 193, 2-((2-methylene-4-((2-methylheptan-2-yl)oxy)-4-oxobutanoyl)oxy)acetic acid] has an IC50 of 17.6 µM.

Test system: not listed separately
Assay: Mouse pharmacokinetic study, oral administration
Assay type: in vivo
Conditions: male, C57BL/6, mouse, plasma, po, 100 mg/kg, plasma, male C57BL/6 mice, oral gavage 100 mg/kg, 0.083 h; read-out: Parent compound concentrations following oral administration, Time 0.083 h
Method: Pharmacokinetic studies were carried out in 6-8-week-old male C57BL/6 mice having free access to food and water. Intravenous dosing was conducted at 10 mg/kg (5 mL/kg; vehicle: 10% DMSO-90% (25% HP-13-CD in water)) via tail vein injection, with sampling at 3 min, 8 min, 15 min, 30 min, 1, 2, 4, 6 and 8 hours, i.e., 9 time points in total (N=3/time point), using semi-serial bleeding for plasma. Oral compound administration, via gavage, was carried out at 100 mg/kg (10 mL/kg; vehicle: 5% DMSO-95% (0.5% HPMC+0.1% Tween 80 in water)), with sampling at 5 min, 15 min, 30 min, 1, 2, 4, 6, 8 and 24 hours, i.e., 9 time points in total (N=3/time point), using semi-serial bleeding for plasma.
For both intravenous and oral routes, the mice were restrained manually at the designated time points, with ca. 110 μL of blood being taken into K2EDTA tubes via the facial vein. Blood samples were put on ice and centrifuged to obtain plasma samples from which the concentration at each time point was measured by LC-MS/MS.
`C=C(CC(=O)OC(C)(C)CCCCC)C(=O)OCC(=O)O` [Example 193, 2-((2-methylene-4-((2-methylheptan-2-yl)oxy)-4-oxobutanoyl)oxy)acetic acid] gave a concentration at 0.083 h of 52900 ng/mL.

Same assay, conditions: male, C57BL/6, mouse, plasma, po, 100 mg/kg, plasma, male C57BL/6 mice, oral gavage 100 mg/kg, 0.25 h; read-out: Parent compound concentrations following oral administration, Time 0.25 h
For `C=C(CC(=O)OC(C)(C)CCCCC)C(=O)OCC(=O)O` [Example 193, 2-((2-methylene-4-((2-methylheptan-2-yl)oxy)-4-oxobutanoyl)oxy)acetic acid], the concentration at 0.25 h was 45600 ng/mL.

Same assay, conditions: male, C57BL/6, mouse, plasma, po, 100 mg/kg, plasma, male C57BL/6 mice, oral gavage 100 mg/kg, 0.5 h; read-out: Parent compound concentrations following oral administration, Time 0.5 h
`C=C(CC(=O)OC(C)(C)CCCCC)C(=O)OCC(=O)O` [Example 193, 2-((2-methylene-4-((2-methylheptan-2-yl)oxy)-4-oxobutanoyl)oxy)acetic acid] gave a concentration at 0.5 h of 31500 ng/mL.

Same assay, conditions: male, C57BL/6, mouse, plasma, po, 100 mg/kg, plasma, male C57BL/6 mice, oral gavage 100 mg/kg, 1 h; read-out: Parent compound concentrations following oral administration, Time 1 h
For `C=C(CC(=O)OC(C)(C)CCCCC)C(=O)OCC(=O)O` [Example 193, 2-((2-methylene-4-((2-methylheptan-2-yl)oxy)-4-oxobutanoyl)oxy)acetic acid], the concentration at 1 h was 8930 ng/mL.

Same assay, conditions: male, C57BL/6, mouse, plasma, po, 100 mg/kg, plasma, male C57BL/6 mice, oral gavage 100 mg/kg, 2 h; read-out: Parent compound concentrations following oral administration, Time 2 h
With `C=C(CC(=O)OC(C)(C)CCCCC)C(=O)OCC(=O)O` [Example 193, 2-((2-methylene-4-((2-methylheptan-2-yl)oxy)-4-oxobutanoyl)oxy)acetic acid] the concentration at 2 h was 2120 ng/mL.

Same assay, conditions: male, C57BL/6, mouse, plasma, po, 100 mg/kg, plasma, male C57BL/6 mice, oral gavage 100 mg/kg, 4 h; read-out: Parent compound concentrations following oral administration, Time 4 h
Work on `C=C(CC(=O)OC(C)(C)CCCCC)C(=O)OCC(=O)O` [Example 193, 2-((2-methylene-4-((2-methylheptan-2-yl)oxy)-4-oxobutanoyl)oxy)acetic acid] yielded a concentration at 4 h of 920 ng/mL.

Same assay, conditions: male, C57BL/6, mouse, plasma, po, 100 mg/kg, plasma, male C57BL/6 mice, oral gavage 100 mg/kg, 6 h; read-out: Parent compound concentrations following oral administration, Time 6 h
Molecule `C=C(CC(=O)OC(C)(C)CCCCC)C(=O)OCC(=O)O` [Example 193, 2-((2-methylene-4-((2-methylheptan-2-yl)oxy)-4-oxobutanoyl)oxy)acetic acid] has a concentration at 6 h of 55 ng/mL.

Same assay, conditions: male, C57BL/6, mouse, plasma, po, 100 mg/kg, plasma, male C57BL/6 mice, oral gavage 100 mg/kg, 8 h; read-out: Parent compound concentrations following oral administration, Time 8 h
Work on `C=C(CC(=O)OC(C)(C)CCCCC)C(=O)OCC(=O)O` [Example 193, 2-((2-methylene-4-((2-methylheptan-2-yl)oxy)-4-oxobutanoyl)oxy)acetic acid] yielded a concentration at 8 h of 19 ng/mL.

Same assay, conditions: male, C57BL/6, mouse, plasma, po, 100 mg/kg, plasma, male C57BL/6 mice, oral gavage 100 mg/kg, 24 h; read-out: Parent compound concentrations following oral administration, Time 24 h
Work on `C=C(CC(=O)OC(C)(C)CCCCC)C(=O)OCC(=O)O` [Example 193, 2-((2-methylene-4-((2-methylheptan-2-yl)oxy)-4-oxobutanoyl)oxy)acetic acid] yielded a concentration at 24 h of 5.6 ng/mL.

Test system: not listed separately
Assay: Mouse pharmacokinetic study, intravenous dosing
Assay type: in vivo
Conditions: male, C57BL/6, mouse, iv; plasma, 10 mg/kg i.v., time 0.05 h; read-out: Parent compound concentration following intravenous administration
Outline: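 Oral arm: 100 mg/kg gavage in 5% DMSO with 0.5% HPMC/0.1% Tween 80, blood from 5 min to 24 h. Intravenous arm: 10 mg/kg tail-vein injection in 10% DMSO with HP-β-CD, blood from 3 min to 8 h. Male C57BL/6 mice; LC-MS/MS on plasma.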
`C=C(CC(=O)OC(C)(C)CCCCC)C(=O)OCC(=O)O` [Example 193, 2-((2-methylene-4-((2-methylheptan-2-yl)oxy)-4-oxobutanoyl)oxy)acetic acid] gave a concentration at 0.05 h of 28800 ng/mL.

Same assay, conditions: male, C57BL/6, mouse, iv; plasma, 10 mg/kg i.v., time 0.133 h; read-out: Parent compound concentration following intravenous administration
In the case of `C=C(CC(=O)OC(C)(C)CCCCC)C(=O)OCC(=O)O` [Example 193, 2-((2-methylene-4-((2-methylheptan-2-yl)oxy)-4-oxobutanoyl)oxy)acetic acid], the concentration at 0.133 h is reported as 10700 ng/mL.

Same assay, conditions: male, C57BL/6, mouse, iv; plasma, 10 mg/kg i.v., time 0.25 h; read-out: Parent compound concentration following intravenous administration
For `C=C(CC(=O)OC(C)(C)CCCCC)C(=O)OCC(=O)O` [Example 193, 2-((2-methylene-4-((2-methylheptan-2-yl)oxy)-4-oxobutanoyl)oxy)acetic acid], the concentration at 0.25 h was 4040 ng/mL.

Same assay, conditions: male, C57BL/6, mouse, iv; plasma, 10 mg/kg i.v., time 0.5 h; read-out: Parent compound concentration following intravenous administration
Molecule `C=C(CC(=O)OC(C)(C)CCCCC)C(=O)OCC(=O)O` [Example 193, 2-((2-methylene-4-((2-methylheptan-2-yl)oxy)-4-oxobutanoyl)oxy)acetic acid] has a concentration at 0.5 h of 1450 ng/mL.

Same assay, conditions: male, C57BL/6, mouse, iv; plasma, 10 mg/kg i.v., time 1 h; read-out: Parent compound concentration following intravenous administration
`C=C(CC(=O)OC(C)(C)CCCCC)C(=O)OCC(=O)O` [Example 193, 2-((2-methylene-4-((2-methylheptan-2-yl)oxy)-4-oxobutanoyl)oxy)acetic acid] gave a concentration at 1 h of 134 ng/mL.

Same assay, conditions: male, C57BL/6, mouse, iv; plasma, 10 mg/kg i.v., time 2 h; read-out: Parent compound concentration following intravenous administration
`C=C(CC(=O)OC(C)(C)CCCCC)C(=O)OCC(=O)O` [Example 193, 2-((2-methylene-4-((2-methylheptan-2-yl)oxy)-4-oxobutanoyl)oxy)acetic acid] showed a concentration at 2 h of 16 ng/mL.

Same assay, conditions: male, C57BL/6, mouse, iv; plasma, 10 mg/kg i.v., time 4 h; read-out: Parent compound concentration following intravenous administration
`C=C(CC(=O)OC(C)(C)CCCCC)C(=O)OCC(=O)O` [Example 193, 2-((2-methylene-4-((2-methylheptan-2-yl)oxy)-4-oxobutanoyl)oxy)acetic acid] showed a concentration at 4 h of 4.1 ng/mL.

Same assay, conditions: male, C57BL/6, mouse, iv; plasma, 10 mg/kg i.v., time 6 h; read-out: Parent compound concentration following intravenous administration
With `C=C(CC(=O)OC(C)(C)CCCCC)C(=O)OCC(=O)O` [Example 193, 2-((2-methylene-4-((2-methylheptan-2-yl)oxy)-4-oxobutanoyl)oxy)acetic acid] the concentration at 6 h was < 4 ng/mL.

Same assay, conditions: male, C57BL/6, mouse, iv; plasma, 10 mg/kg i.v., time 8 h; read-out: Parent compound concentration following intravenous administration
In the case of `C=C(CC(=O)OC(C)(C)CCCCC)C(=O)OCC(=O)O` [Example 193, 2-((2-methylene-4-((2-methylheptan-2-yl)oxy)-4-oxobutanoyl)oxy)acetic acid], the concentration at 8 h is reported as < 4 ng/mL.

Reference: patent US12390437B2, “Itaconic acid derivatives and uses thereof intreating an inflammatory disease or a disease associated with an undesirable immune response” (Sitryx Therapeutics Limited, priority 2019, dated 2025)
